Experimental data from patent publication US20260327655A1, “SMALL-MOLECULE REGULATED ALTERNATIVE SPLICING” (priority 2023, published 2026).

Legend:
RS1-10 [1] = assay: Dose-response profiling assay, RS1-10 Flp-In-293 cell line; type: cell-based; conditions: 18 hours, FIGS. 9D-9F
Experimental: Single-copy insertion of an switch construct and subsequent cell-line generation was performed in Flp-In-293 cells according to manufacturer's protocols. The RS1-10 sequence fused to a Firefly Luciferase gene was cloned into a Flp-In compatible pcDNA5/FRT expression vector with a CMV promoter and BGH polyadenylation signal. Resulting Flp-In cell line carried a single-copy expression cassette (RSwitch-controlled) integrated into the genome. The RS1-10 Flp-In cell line was cultured in DMEM+10% FBS, collected after trypsinization, and then dispensed into 96-well plates (cell culture-treated). Each well of the plate was seeded with 1.0×10^5 cells in 100 μL culture medium. Subsequently, either DMSO vehicle or a splice modulator compound at specified doses was added to the wells of the plate. Triplicate wells were used for each condition tested in the experiment. Plates were then incubated for 18 hours in a tissue culture incubator (5% CO2, 37° C.). Endpoint analysis was performed by adding 100 uL of a Luciferase substrate, such as Steady-Luc Firefly Luciferase substrate, to each well of the assay plate. The liquid contents of each was transferred to a 96-well plate, mixed again for 2 min on an orbital shaker, and incubated at room temperature for 5 min. Finally, the luminescent signal from each well was measured with a plate reader. Each plotted data point on a graph in a figure represents a mean of 3 wells+/−standard deviation normalized to vehicle controls. A nonlinear regression curve fit of the plotted data points was generated in graphing software.

RS1-10 [2] = assay: In vivo mouse study of RS1-10 activation (AAV-PHP.eB, bioluminescent imaging); set-up: species or system C57BL/6 mice; conditions: 10 mg/kg single oral gavage
Experimental: C57BL/6 mice underwent tail vein injection of 3.00E+11 vector (depicted in FIG. 11A) genomes/mouse AAV vector composed of a genome containing a cloned human Synapsin promoter driving the expression of a Firefly Luciferase gene. Expression of the luciferase gene was gated by the RS1-10 switch. The AAV vector utilized a brain-penetrant AAV-PHP.eB capsid (FIG. 11A). At approximately 3 weeks after AAV delivery, mice were either dosed with compound vehicle or 10 mg/kg 24 A as a single oral gavage. 6 hours after the oral dosing, mice were intraperitoneally administered D-Luciferin (150 mg/kg), anesthetized, and imaged with a bioluminescent imaging (BLI) system to analyze activation of RS1-10. Light flux from expressed Firefly Luciferase was measured from the whole body of each mouse as radiance and a brightfield image was also taken as an anatomical reference (FIG. 11B). […]
C57BL/6 mice underwent tail vein injection of 3.00E+11 vector genomes/mouse AAV vector composed of a genome containing a cloned human Synapsin promoter driving the expression of a Firefly Luciferase gene. […] Light flux from expressed Firefly Luciferase was measured from the whole body of each mouse as radiance and a brightfield image was also taken as an anatomical reference. […]

RS4-1 and variants = assay: Luciferase induction assay, RS4-1 and variants in HEK-293T cells; type: cell-based, human; conditions: 18 hours, FIGS. 15A, 15B
Experimental: HEK-293T cells were cultured in DMEM+10% FBS, collected after trypsinization, and dispensed into 96-well plates (cell culture-treated). Each well of the plate was seeded with 1.0×10^5 cells in 100 μL culture medium. After a 1-hour incubation in the tissue culture incubator (5% CO2, 37° C.), plasmid DNA was complexed with a transfection reagent, such as Lipofectamine 3000, and added to respective wells on the plate. Each well received 100 ng of plasmid DNA complexed with 0.15 μL Lipofectamine 3000. The plasmids utilized in the experiment encoded a CMV promoter upstream of the RS4-1 construct and variants that controlled the expression of a Firefly Luciferase gene followed by a SV40 polyadenylation signal. After a 10-minute incubation at room temperature, either DMSO vehicle or 24 A at specified doses was added to the wells of the plate. Plates were then incubated for 18 hours in a tissue culture incubator. Endpoint analysis was performed by adding 100 uL of a Luciferase substrate, such as Steady-Luc Firefly Luciferase substrate, to each well of the assay plate. The liquid contents of each was transferred to a 96-well plate, mixed again for 2 min on an orbital shaker, and incubated at room temperature for 5 min. Finally, the luminescent signal from each well was measured with a plate reader. […]

RS1-10 and RS1-X1 = assay: Luminescence of RS1-10 and RS1-X1 in HEK-293T cells; type: cell-based, human; conditions: 85 nM, 24 hours, RS1-X1 vs RS1-10, FIG. 8B
Experimental: A plasmid pool that was transfected into HEK-293T cells was treated for 24 hours with splice modulator 24 A at a concentration of 85 nM. RS1-10 was the starting minigene sequence and a variant switch sequence was identified from the switch sequence screen containing a 28 nucleotide intronic deletion compared to the RS1-10 sequence. […]. RS1-10 controlling a firefly luciferase gene or RS1-X1 controlling a firefly luciferase gene were cloned into individual expression plasmids containing a CMV promoter. HEK 293T cells were transfected with either the RS1-10 or RST-XT expression plasmid and were then treated for 24 hours with 85 nM 24 A while incubated in a tissue culture incubator (37° C., 5% CO2). The luminescence was measured as an endpoint analysis by adding 100 μL of a Luciferase substrate, such as Steady-Luc Firefly Luciferase substrate, to each well of the assay plate. The liquid contents of each well was transferred to a 96-well plate, mixed again for 2 min on an orbital shaker, and incubated at room temperature for 5 min. Finally, the luminescent signal from each well was measured with a plate reader (FIG. 8B).

Question: For `CCN1CC(c2ccc(-c3ccc(-c4ccc5nn(C)cc5c4)cc3O)nn2)C1` [Compound 24A, 2-[6-(1-ethylazetidin-3-yl)pyridazin-3-yl]-5-(2-methyl-2H-indazol-5-yl)phenol], which “fold-induction of luciferase signal, dose response” value (RS1-10 [1]) is on record?
Answer: Its value is “increase in fold-induction of luciferase signal with increasing concentrations”.

Question: What about the “light flux from the heads of mice (bioluminescent imaging)” value (RS1-10 [2]; 6 hours post dose, ~3 weeks after AAV delivery, vs vehicle) of the same compound?
Answer: Its value is “Significant increases in light flux”.

Question: And the “bioluminescent signal after drug washout” value (RS1-10 [2]; 7 days post dose)?
Answer: The value was “No significant signal was detected”.

Question: What about the fold-induction of luciferase (RS4-1 and variants) of the same compound?
Answer: The fold-induction of luciferase was “increasing fold-induction of luciferase with increasing concentrations”.

Question: What about the “luminescence (RLU)” value (RS1-10 and RS1-X1) of the same compound?
Answer: The value was “RS1-X1 produced a higher luminescence (RLU) than RS1-10”.
